Test [1] has as its target T1, Saccharomyces cerevisiae α-glucosidase (Saccharomyces cerevisiae, UniProt P53341).
T1 construct: purchased Sigma-Aldrich
The test is described as follows: biochemical. The following applies: mean ± SD, at least three experiments; substrate p-nitrophenyl glucopyranoside, pH 6.8, 37 °C; read-out: IC50 (in vitro α-glucosidase inhibitory activity). As to the method:
The target substituted imidazo[1,2-c]quinazolines 6a–c and 11a–o were evaluated for their in vitro Saccharomyces cerevisiae α-glucosidase inhibitory activities to investigate the role of substituents on the imidazole moiety and the phenyl ring originated from benzaldehyde moieties.
α-Glucosidase enzyme ((EC3.2.1.20, Saccharomyces cerevisiae, 20 U mg^−1) and substrate (p-nitrophenyl glucopyranoside) were purchased from Sigma-Aldrich. Enzyme was prepared in potassium phosphate buffer (pH 6.8, 50 mM), as well as substituted benzo[4,5]imidazo[1,2-c]quinazoline 6a-c and highly-substituted imidazo[1,2-c]quinazolines 11a–o were dissolved in DMSO (10% final concentration). The various concentrations of these compounds ([…]), enzyme solution ([…]) and potassium phosphate buffer ([…]) were added in the 96-well plate and incubated at 37 °C for 10 min. Afterwards, the substrate ([…], 4 mM) was added to the mentioned mixture and allowed to incubate at 37 °C for 20 min. […] The percentage of enzyme inhibition was calculated using Eq. (6) and IC50 values were obtained from non-linear regression curve using the Logit method.6 %Inhibition=Abscontrol-Abssample/Abscontrol×100

The target of test [2] is T2, α-glucosidase (Saccharomyces cerevisiae, UniProt P53341). The test is described as follows: Enzyme kinetic study (Lineweaver–Burk plot).
T2 sequence (P53341 whole entry): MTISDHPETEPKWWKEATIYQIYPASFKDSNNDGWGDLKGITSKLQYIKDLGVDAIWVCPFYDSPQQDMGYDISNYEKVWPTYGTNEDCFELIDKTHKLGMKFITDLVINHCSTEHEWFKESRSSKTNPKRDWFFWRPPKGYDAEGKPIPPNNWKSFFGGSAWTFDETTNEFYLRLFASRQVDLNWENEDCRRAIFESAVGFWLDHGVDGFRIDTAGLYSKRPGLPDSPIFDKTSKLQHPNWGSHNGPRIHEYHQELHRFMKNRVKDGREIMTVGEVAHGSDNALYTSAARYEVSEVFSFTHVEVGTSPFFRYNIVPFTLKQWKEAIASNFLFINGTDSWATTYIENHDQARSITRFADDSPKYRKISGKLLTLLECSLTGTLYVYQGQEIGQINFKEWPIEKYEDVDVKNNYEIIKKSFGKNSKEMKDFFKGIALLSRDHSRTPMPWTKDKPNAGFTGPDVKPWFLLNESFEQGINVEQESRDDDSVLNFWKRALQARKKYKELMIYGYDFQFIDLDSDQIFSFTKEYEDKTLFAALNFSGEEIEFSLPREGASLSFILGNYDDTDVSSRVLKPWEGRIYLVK
Method: [I] is the concentration of inhibitor.
Therefore, the slope of Lineweaver Burk plot is equal to:10 Slope=Km/Vmax1+I/KI
The Kmapp value is calculated by Eq. (6):11 Kmapp=Km1+I/KI
[I], Eq. (7) can be used for the calculation of KI[59],[60]:12 Kmapp=Km+Km/KII
For test [3], the target named is T2, α-glucosidase. Briefly: Fluorescence spectroscopy (quenching) measurements. It counts as binding. Also noted: purchased Sigma-Aldrich. As to the method: In present study, fluorescence spectroscopy measurement was performed between imidazo[1,2-c]quinazoline 11j and the active site of enzyme using a Synergy HTX multi-mode reader (Biotek Instruments, Winooski, VT, USA) equipped with a quartz cuvette of 10 mm. The excitation wavelength was 280 nm, and the emission spectra were reported at five different temperatures in the range from 300 to 450 nm with 10 accumulations for each collection point. The emission spectrum was adjusted for the background fluorescence from the buffer solution and for the inner filter effect promoted by the inhibitors (Fig. 5).
There are two types of fluorescence quenching: dynamic and static. Dynamic quenching arises from the collisional encounter between the fluorophore (tryptophan residues) and the quencher (inhibitor). […] Therefore, the biding parameters can be determined as follow:
The reaction is determined as P + D → DnP in which P is the protein, D is the drug molecule (inhibitor), and DnP is the new complex molecule. The binding constant for this complex for this complex, denoted as KA, is calculated using Eq. (1). […] Since the number of the binding site of protein and drug is n and 1, respectively, the equivalent concentration of the complex DnP is n[DnP]. Moreover, the equivalent concentration of the protein is n[P], and the equivalent concentration of the drug is [D]:1 KA=nDnP/DnP
The total concentration of protein is [Pt], and the total concentration of the drug is [Dt]; therefore, [Pt] = [Pf] + [DnP] and [Df] = [Dt]−n[DnP]. Since protein (P) is the only fluorescence in present study, thus:2 F0/F=Pt/Pf
F and F0 are the fluorescence intensity of protein in the presence and absence of inhibitor, respectively. Therefore, the relationship between the fluorescence intensity and the total concentration of the drug could be deduced:3 F0/F=KADtF0/F0-F-n KAPt
As the total concentration of protein was kept at a constant value (at 46 nM), while the total concentration of the drug was changed. Using the Eq. (3), a plot of F0/F Vs. [Dt] F0/(F0−F) was obtained, as depicted in Fig. 6.
To this aim, different solutions containing different concentrations (0 to 1.0 µM) of the inhibitor and α-glucosidase (3 ml, 0.1 U ml^−1) were held for 10 min to equilibrate before measurements. Moreover, the fluorescence of the buffer containing compound 11j in the absence of the enzyme were subtracted as the background fluorescence. Afterwards, at the excitation wavelength of 280 nm, the fluorescence emission spectra were measured from 300 to 450 nm using a Synergy HTX multi-mode reader (Biotek Instruments, Winooski, VT, USA) equipped with a 1.0 cm quartz cell holder.

The target of test [4] is T2, α-glucosidase. Briefly: Circular dichroism spectroscopy, secondary structure content of the enzyme. Set-up: purchased Sigma-Aldrich. The following applies: inhibitor 12.4 μM. As to the method: The difference between the absorption of right and left circularly polarized light is measured in circular dichroism spectroscopy (CD) in order to reveal the chiral environment around amino acid residues. The CD spectrum in the far ultraviolet region ranged from 190 to 240 nm is mainly used to provide valuable information about the arrangement of protein bonds and secondary structure of the proteins in dilute solutions. There are several principal conformations like α-helix, extended β structure (or β-sheet), β-turn, and random coil (which are unordered structures). They are characterized as follow: α-helix structures by negative CD bands at 222 and 208 nm and a positive CD band at approximately 190 nm; β-sheet structures by a negative CD band in the region of 210–220 nm; β-turn structures by a negative CD band between 180 and 190 nm; and the spectra of random coil by a characteristic negative CD band in region of 200 nm[49],[50].
To study the impact of imidazo[1,2-c]quinazoline 11j on the secondary structure of α-glucosidase (Fig. 4b), the CD spectra (180–250 nm) was measured and analyzed using the CDNN software to be compared with the native enzyme (Fig. 4a). […] Moreover, this compound can change the secondary structure of α-glucosidase, resulting to inhibit its performance.
For orientation: Circular dichroism is widely used to follow secondary structure.

For test [5], the target named is T2, α-glucosidase. The test is described as follows: Thermodynamic analysis of binding to α-glucosidase. Also noted: purchased Sigma-Aldrich. The text has this: This fluorescent intensity data was plotted as a function of temperature and binding constants; therefore, thermodynamic profile including ΔG (free energy change), ΔH (enthalpy change), and ΔS (entropy change) could be computed to determine the type of non-covalent forces between imidazo[1,2-c]quinazoline 11j and binding site of α‑glucosidase. These forces between the protein and inhibitor can be categorized into four groups: hydrogen bond, van der Waals forces, electrostatic attraction, and hydrophobic interactions. To identify the type of interactions in present study, thermodynamic parameters must be calculated using following equations:4 lnKA2/KA1=ΔH/R1/T2-1/T1 5 ΔG=-RT ln KA=ΔH-TΔS
Already, there was some information including binding constants (KA2 = 36.6 × 10^4 and KA1 = 40.5 × 10^4) as well as initial and final temperatures (T1 = 20 ℃ (293 K) and T2 = 60 ℃ (333 K)). Therefore, using Eq. (4), ΔH is obtained − 2.17 (kJ mol^–1) and subsequently using Eq. (5), ΔG and ΔS values are calculated − 20.6 (kJ mol^–1) and 62.9 (J mol^–1 K^–1), respectively.
Considering the sign of these thermodynamic parameters, the type of non-covalent force could be determined as follow: (1) ΔH > 0, ΔS > 0, hydrophobic interactions; (2) ΔH < 0, ΔS > 0, van der Waals forces; (3) ΔH < 0, ΔS < 0, hydrogen bond and van der Waals interactions; and (4) ΔH < 0, ΔS > 0, electrostatic interactions.

T1 sequence (P53341 whole entry): as above

With `c1ccc(-c2nc3ccccc3c3nc4ccccc4n23)cc1` [6a, 6-phenylbenzo[4,5]imidazo[1,2-c]quinazoline], the IC50 in test [1] came out at 256.48 ± 0.14 µM.

For `Clc1ccc(-c2nc3ccccc3c3nc4ccccc4n23)cc1` [6b, 6-(4-chlorophenyl)benzo[4,5]imidazo[1,2-c]quinazoline], the IC50 in test [1] amounted to 308.33 ± 0.06 µM.

In the case of `COc1ccc(-c2nc3ccccc3c3nc4ccccc4n23)cc1` [6c, 6-(4-methoxyphenyl)benzo[4,5]imidazo[1,2-c]quinazoline], the IC50 in test [1] was 124.3 ± 0.37 µM.

For the molecule `c1ccc(-c2nc3c4ccccc4nc(-c4ccccc4)n3c2-c2ccccc2)cc1` [11a, 2,3,5-triphenylimidazo[1,2-c]quinazoline], the half-maximal inhibitory concentration (IC50) in test [1] is 209.15 ± 0.04 µM.

In the case of `Clc1ccc(-c2nc3ccccc3c3nc(-c4ccccc4)c(-c4ccccc4)n23)cc1` [11b, 5-(4-chlorophenyl)-2,3-diphenylimidazo[1,2-c]quinazoline], in test [1], the IC50 came to 273.28 ± 0.09 µM.

For `Clc1cccc(-c2nc3ccccc3c3nc(-c4ccccc4)c(-c4ccccc4)n23)c1` [11c, 5-(3-chlorophenyl)-2,3-diphenylimidazo[1,2-c]quinazoline], the IC50 in test [1] worked out at 246.49 ± 0.18 µM.

With `Clc1ccccc1-c1nc2ccccc2c2nc(-c3ccccc3)c(-c3ccccc3)n12` [11d, 5-(2-chlorophenyl)-2,3-diphenylimidazo[1,2-c]quinazoline], the IC50 in test [1] is 253.1 ± 0.26 µM.

For `Cc1ccc(-c2nc3ccccc3c3nc(-c4ccccc4)c(-c4ccccc4)n23)cc1` [11e, 5-(4-methylphenyl)-2,3-diphenylimidazo[1,2-c]quinazoline], the IC50 in test [1] is 124.5 ± 0.29 µM.

`CN(C)c1ccc(-c2nc3ccccc3c3nc(-c4ccccc4)c(-c4ccccc4)n23)cc1` [11f, 4-(2,3-diphenylimidazo[1,2-c]quinazolin-5-yl)-N,N-dimethylaniline]: in test [1], the IC50 came to 168.36 ± 0.15 µM.

On to `COc1ccc(-c2nc3ccccc3c3nc(-c4ccccc4)c(-c4ccccc4)n23)cc1` [11g, 5-(4-methoxyphenyl)-2,3-diphenylimidazo[1,2-c]quinazoline], for which, in test [1], the IC50 is 82.64 ± 0.03 µM.

For `COc1cccc(-c2nc3ccccc3c3nc(-c4ccccc4)c(-c4ccccc4)n23)c1` [11h, 5-(3-methoxyphenyl)-2,3-diphenylimidazo[1,2-c]quinazoline], the IC50 in test [1] was 47.92 ± 0.18 µM.

As to `COc1ccccc1-c1nc2ccccc2c2nc(-c3ccccc3)c(-c3ccccc3)n12` [11i, 5-(2-methoxyphenyl)-2,3-diphenylimidazo[1,2-c]quinazoline], the half-maximal inhibitory concentration (IC50) in test [1] worked out at 24.25 ± 0.13 µM.

Take `COc1cccc(-c2nc3ccccc3c3nc(-c4ccccc4)c(-c4ccccc4)n23)c1OC` [11j, 5-(2,3-dimethoxyphenyl)-2,3-diphenylimidazo[1,2-c]quinazoline]: in test [2], the Ki stood at 11 µM. Also, in test [2] (Lineweaver–Burk plot: Km increased, Vmax did not change), the type of inhibition entry is given as “competitive”. Besides, the “number of binding sites n” value in test [3] (20 ℃) was 0.3. The “binding constant KA” value in test [3] (20 ℃, protein 46 nM) was 40.5 × 10^4 L mol^–1 s^–1; in test [3] (60 ℃), 36.6 × 10^4 L mol^–1 s^–1. The fluorescence quenching mechanism entry in test [3] (tryptophan residues as fluorophores) was “static quenching”. Besides, the “α-Helix content of α-glucosidase” value in test [4] (native enzyme 28.8) is 50.3%. Besides, in test [4] (native enzyme 28.8), the “ꞵ-Turn content of α-glucosidase” value was 49.7%. The “Random coil content of α-glucosidase” value in test [4] (native enzyme 42.4) amounted to 0%. In addition, in test [5] (Eq. (5)), the “ΔS (entropy change)” value turned out to be 62.9 J mol^–1 K^–1. In test [5] (from signs of ΔH and ΔS), the “acting non-covalent force between inhibitor and enzyme” value was “electrostatic forces”.

As to `COc1ccc(-c2nc3ccccc3c3nc(-c4ccccc4)c(-c4ccccc4)n23)c(OC)c1` [11k, 5-(2,4-dimethoxyphenyl)-2,3-diphenylimidazo[1,2-c]quinazoline], the IC50 in test [1] stood at 14.32 ± 0.05 µM.

In the case of `COc1ccc(OC)c(-c2nc3ccccc3c3nc(-c4ccccc4)c(-c4ccccc4)n23)c1` [11l, 5-(2,5-dimethoxyphenyl)-2,3-diphenylimidazo[1,2-c]quinazoline], in test [1], the IC50 came to 64.29 ± 0.54 µM.

`COc1ccc(-c2nc3ccccc3c3nc(-c4ccccc4)c(-c4ccccc4)n23)cc1OC` [11m, 5-(3,4-dimethoxyphenyl)-2,3-diphenylimidazo[1,2-c]quinazoline]: the IC50 in test [1] is 21.6 ± 0.32 µM.

For the molecule `COc1cc(-c2nc3ccccc3c3nc(-c4ccccc4)c(-c4ccccc4)n23)cc(OC)c1OC` [11n, 2,3-diphenyl-5-(3,4,5-trimethoxyphenyl)imidazo[1,2-c]quinazoline], in test [1], the IC50 was 46.73 ± 0.07 µM.

Consider `COc1cc(-c2nc3ccccc3c3nc(-c4ccccc4)c(-c4ccccc4)n23)cc(Br)c1OC` [11o, 5-(3-bromo-4,5-dimethoxyphenyl)-2,3-diphenylimidazo[1,2-c]quinazoline], for which the IC50 in test [1] is 154.9 ± 0.36 µM.

By IC50 is commonly meant the point on the concentration scale where inhibition reaches its midpoint. The term Ki denotes a dissociation constant, usually derived from enzyme kinetics or from competition with a known ligand. A high value points to lower affinity.

Source of the values: paper PMC10514295, “Imidazo[1,2-c]quinazolines as a novel and potent scaffold of α-glucosidase inhibitors: design, synthesis, biological evaluations, and in silico studies” (Scientific Reports, 2023).
